This is an account of results in publication PMC4102788, “Linking off-target kinase pharmacology to the differential cellular effects observed among PARP inhibitors” (Oncotarget, 2014).

One test deals with T1, human CDK9 kinase (Homo sapiens, UniProt P50750).
T1 construct: purchased Cerep (CRO that ran the assay) 2912 (781-cdk9); host or cells: Sf9 cells
Description: Human CDK9 kinase in vitro inhibition assay (Cerep, LANCE). Type of test: biochemical. The settings on record: human recombinant enzyme, 10 µM ATP. The text has this: (§1) Rucaparib, veliparib and olaparib were purchased from Selleckchem. Kinase in vitro assays were perfomed at Cerep (www.cerep.fr) by measuring the phosphorylation of appropriate peptide substrates by human recombinant enzymes and using FRET as a detection method (a detailed description of each kinase assay is available in online supplementary data).
Human CDK9 kinase in vitro inhibition assay
All details for the CDK9 in vitro assay can be consulted in the Cerep Catalogue available online under references 2912 (781-cdk9): http://www.cerep.fr/cerep/users/pages/catalog/Affiche_CondExp_Test.asp?test=2912 Evaluation of the effects of compounds on the activity of the human CDK9 quantified by measuring the phosphorylation of the substrate Ulight- […]
mixture is incubated for 90 min at room temperature. […] After 60 more min, the fluorescence transfer is measured at λex=337 nm, λem=620 nm and λem=665 nm using a microplate reader (Envision, Perkin Elmer). The enzyme activity is determined by dividing the signal measured at λem=665 nm by that measured at λem=620 nm (ratio). The results are expressed as a percent inhibition of the control enzyme activity. The standard inhibitory reference compound is staurosporine, which is tested in each experiment at several concentrations to obtain an inhibition curve from which its IC50 value is calculated. […]
(TR-FRET usually uses a lanthanide donor and a delayed reading to cut background.)

The subject of a further test is STAT3 phosphorilation. More on the design: method as in PMID 22678161. Conditions: at 5 µM; cited from earlier work.
A further test has as its target T2, human PIM2 kinase (Homo sapiens, UniProt Q9P1W9).
T2 construct: purchased Cerep (CRO that ran the assay) 2920 (745-P2); host or cells: insect cells
Description: Human Pim2 kinase in vitro inhibition assay (Cerep, LANCE/FRET). Type of test: biochemical.
Text: as §1
Human Pim1 and Pim2 kinase in vitro inhibition assays
All details for the Pim1 and Pim2 in vitro assays can be consulted in the Cerep […]
http://www.cerep.fr/cerep/users/pages/catalog/Affiche_CondExp_Test.asp?test=2919, http://www.cerep.fr/cerep/users/pages/catalog/Affiche_CondExp_Test.asp?test=2920.
Evaluation of the effects of compounds on the activity of the human Pim1 and Pim2 kinases were quantified by measuring the phosphorylation of the substrate Ulight- […]
([…]) and ATP (30 µM for Pim1 and 3 µM for Pim2), and the mixture is incubated for 60 min at room temperature. […] After 60 more min, the fluorescence transfer is measured at λex=337 nm, λem=620 nm and λem=665 nm using a microplate reader (Envision, Perkin Elmer).
The enzyme activity is determined by dividing the signal measured at λem=665 nm by that measured at λem=620 nm (ratio). The results are expressed as a percent inhibition of the control enzyme activity. […]

T2 sequence (Q9P1W9 whole entry): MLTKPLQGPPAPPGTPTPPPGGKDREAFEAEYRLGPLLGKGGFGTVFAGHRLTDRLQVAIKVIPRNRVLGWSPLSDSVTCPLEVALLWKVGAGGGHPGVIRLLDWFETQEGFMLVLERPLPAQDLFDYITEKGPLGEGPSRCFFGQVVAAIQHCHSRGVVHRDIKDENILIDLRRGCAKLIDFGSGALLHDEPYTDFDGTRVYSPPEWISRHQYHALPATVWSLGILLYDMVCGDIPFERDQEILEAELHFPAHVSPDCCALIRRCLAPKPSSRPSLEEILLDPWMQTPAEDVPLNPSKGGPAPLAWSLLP
T1 sequence (P50750 whole entry): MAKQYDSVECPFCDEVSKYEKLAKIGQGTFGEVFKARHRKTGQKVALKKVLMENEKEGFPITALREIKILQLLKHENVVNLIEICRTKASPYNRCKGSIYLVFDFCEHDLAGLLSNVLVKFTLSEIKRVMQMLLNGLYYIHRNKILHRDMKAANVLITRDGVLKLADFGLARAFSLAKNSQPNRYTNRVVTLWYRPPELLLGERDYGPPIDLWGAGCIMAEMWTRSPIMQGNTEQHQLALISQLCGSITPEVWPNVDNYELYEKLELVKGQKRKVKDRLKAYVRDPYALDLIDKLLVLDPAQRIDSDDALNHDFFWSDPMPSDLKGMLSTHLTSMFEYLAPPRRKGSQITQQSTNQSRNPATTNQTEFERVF
T1 sequence (O60563 whole entry partner): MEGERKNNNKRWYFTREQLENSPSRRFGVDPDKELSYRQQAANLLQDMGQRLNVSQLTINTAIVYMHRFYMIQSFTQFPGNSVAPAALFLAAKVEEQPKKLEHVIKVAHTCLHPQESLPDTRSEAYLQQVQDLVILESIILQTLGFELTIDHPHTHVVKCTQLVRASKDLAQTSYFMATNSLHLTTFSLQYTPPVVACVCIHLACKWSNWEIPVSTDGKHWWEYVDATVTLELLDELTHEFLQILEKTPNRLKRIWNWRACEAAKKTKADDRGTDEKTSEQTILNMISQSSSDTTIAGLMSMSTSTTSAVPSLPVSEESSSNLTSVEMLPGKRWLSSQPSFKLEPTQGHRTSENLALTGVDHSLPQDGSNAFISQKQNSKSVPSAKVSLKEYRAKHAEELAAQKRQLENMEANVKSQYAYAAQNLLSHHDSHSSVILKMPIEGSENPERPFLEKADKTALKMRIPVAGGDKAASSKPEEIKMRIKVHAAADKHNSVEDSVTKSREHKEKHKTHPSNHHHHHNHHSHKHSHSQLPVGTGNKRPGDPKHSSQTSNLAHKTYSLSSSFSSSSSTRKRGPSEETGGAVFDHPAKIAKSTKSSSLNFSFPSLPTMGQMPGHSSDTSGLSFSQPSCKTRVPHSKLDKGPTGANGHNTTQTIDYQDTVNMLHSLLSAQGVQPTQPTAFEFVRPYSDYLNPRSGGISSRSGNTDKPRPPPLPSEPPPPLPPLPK

In the case of `CNCc1ccc(-c2[nH]c3cc(F)cc4c3c2CCNC4=O)cc1` [rucaparib], the 50% inhibitory concentration (IC50) (in general, the point on the concentration scale where inhibition reaches its midpoint) on human CDK9 kinase is 2.7 µM; at human PIM2 kinase, 7.7 µM. In the test on STAT3 phosphorilation, the “effect on STAT3 phosphorilation” value is given as “inhibit STAT3 phosphorilation”.
